Experimental data from patent US20250296938A1, “Compounds that Interact with the Ras Superfamily for the Treatment of Cancers, Inflammatory Diseases, Rasopathies, and Fibrotic Disease” (SHY Therapeutics, LLC, priority 2018, published 2025).
Read-outs that look alike come from different tables or passages of the source.

Legend:
HRas wild type = test: Ras GTP binding domain inhibition assay (Cy3-GTP/Cy5-GTP competition); design: species or system human; conditions: at 20 μM; for HRAS wild type + SOS: % inh.: with SOS; for HRas wild type % inh.: without SOS
Procedure, shortened: (§1)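 His-tagged Ras immobilized on nickel-coated wells in Tris buffer (pH 7.4 or 7.0) with 1 mM MgCl2, 1 mM DTT, 1% DMSO. Compound (20 μM, or serial dilution for IC50) incubated 3 hours at room temperature, ± Sos (residues 556-1049) in final hour. Bound 100 nM Cy3-/Cy5-GTP read after 45 minutes and washing.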

KRas G12D mutant = target: T1, KRas G12D mutant (Homo sapiens, UniProt P01116, G12D); test: as above; conditions: at 20 μM
T1 construct: fused on or other part: His tag, used for capture on nickel-coated plates
Procedure, shortened: as §1

Rac-1 = Rac-1 (Homo sapiens, UniProt P63000); test: as above
Procedure, shortened: (§2)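 Compounds tested at 20 μM or in serial dilution for IC50 against nickel-captured His-tagged GTPase, 3 hours at room temperature, with or without His-Sos GEF added for last hour. Fluorescent GTP then added at 100 nM for 45 minutes; wells washed, bound label measured by fluorescence.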

Rho-A = Rho-A (Homo sapiens, UniProt P61586); test: as above; conditions: for Rho-A + SOS: % inh. / Rho-A: % inh.: at 20 μM
Procedure, shortened: as §2

MAPK phosphorylation [1] = test: MAPK cell-based phosphorylation assay (ELISA or Western), PANC-1; conditions: Homo sapiens; 10 μM, 6 hours, EGF stimulation, PANC-1
Procedure, shortened: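 Serum-starved (0.5% FBS overnight) cells given compound at 10 μM or serial dilutions (0.3% DMSO) for 6 h at 37 °C, then 1.5 ng/mL EGF for 15 min. Phospho-MAPK read by fixed-cell ELISA (fluorescence, 595 nm) or by Western blot of lysates with anti-phospho-p44/42 (Thr202/Tyr204).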

MAPK phosphorylation [2] = test: Western MAPK cell-based phosphorylation assay, BxPC3; conditions: Homo sapiens, BXPC-3, 10 μM, 6 hours, EGF stimulation
Description: (§3) Cell lines: Human NSCLC cells NCI-H1975 and NCI-H1299, and tumor-derived pancreatic cancer cell lines Panc-1, MIA-PaCa-2, and BxPC3, were all purchased from American Type Culture Collection and grown in complete RPMI medium (BxPC3, NCI-H1975 and NCI-H1299) or DMEM-High Glucose (Panc1 and MIA-PaCa-2), supplemented with penicillin (100 U/mL), streptomycin (100 μg/mL), and 10% heat-inactivated FBS at 37° C. in a humidified incubator with 5% CO2.
(§4) Method: Cells were plated at 350000 cells/well density in a 12-well plate, allowed 3 hours to adhere to the plate, then starved in the appropriate medium in the presence of 0.5% FBS overnight. The small molecules to be tested were added to the cells in the final concentration of 10 μM in the presence of 0.3% DMSO for 6 hours incubation at 37° C. For IC50 value determination, serial dilutions of compounds were added to cells under the same conditions. Next, cells were stimulated with 1.5 ng/ml EGF for 15 minutes then cells were lysed with lysis buffer containing 1% Triton X-100, EDTA, and Halt™ Protease & Phosphatase Inhibitor Cocktail (Thermo Scientific). Protein concentration was assessed by BCA protein assay (Thermo Scientific). Phosphorylation level of MAPK was determined by western blot.
(§5) Western blot protocol: Equal amounts of protein (15-50 μg) were separated by SDS-PAGE and transferred to nitrocellulose membranes (Invitrogen by Thermo Fisher Scientific). The membrane was stained with Ponceau S Stain (Boston BioProducts) to verify uniform protein loading. Membranes were blocked with 10% milk and phosphorylation levels of MAPK were assessed by incubating overnight at 4° C. with anti-phospho-p44/42 (Thr202/Tyr204) antibody (Cell Signaling) followed by HRP-conjugated secondary antibody (Jackson Immunoresearch, West Grove, PA). Bands were incubated in Amersham ECL Prime Western Blotting Detection Reagent (GE Healthcare) and visualized using the ChemiDoc MP imaging system (Bio-Rad).

MAPK phosphorylation [3] = test: Western MAPK cell-based phosphorylation assay, MIA PaCa-2; conditions: Homo sapiens, 10 μM, 6 hours, EGF stimulation
Description: as §3, §4, §5

AKT phosphorylation = test: Western AKT cell-based phosphorylation assay, PANC-1; conditions: Homo sapiens, 6 hours, EGF stimulation, PANC-1
Procedure, shortened: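 PANC-1 cells, serum-starved overnight in 0.5% FBS, were treated with compound at 10 μM (0.3% DMSO) for 6 h at 37 °C and then stimulated with 1.5 ng/ml EGF for 15 min. Lysates (15–50 μg) were immunoblotted for phospho-Akt Ser473, with ECL detection.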

[4] = test system: MIA PaCa-2 pancreatic cancer cell line; test: Cell proliferation assay (DAPI); assay type: cell-based; conditions: Homo sapiens, MIA PaCa-2; for inhibition at 10 µM: 2-4 days, read-out: % Inhibition of cell proliferation, MIA PaCa-2 % inh
Procedure, shortened: (§6)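 NCI-H1975 cells in RPMI; PANC-1 and MIA PaCa-2 in DMEM-high glucose; BxPC3 in RPMI; all with 10% FBS. Compounds at 10 µM final (or serial dilutions for IC50), 0.3% DMSO, 2–4 days at 37 °C. Fixed, DAPI-stained, fluorescence read at 358/461 nm to give proliferation inhibition.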

[5] = test system: NCI H1975 non-small-cell lung cancer cell line; test: Cell proliferation assay (DAPI); assay type: cell-based; conditions: Homo sapiens
Procedure, shortened: as §6

[6] = test system: PANC-1 pancreatic cancer cell line; test: Cell proliferation assay (DAPI); assay type: cell-based; conditions: Homo sapiens
Procedure, shortened: as §6

[7] = with SOS, read-out: KRas G12D mutant + SOS: % inh.
[8] = without SOS, read-out: KRas G12D mutant: % inh.
[9] = with SOS, read-out: Rac-1 + SOS: % inh.
[10] = without SOS, read-out: Rac-1: % inh.
[11] = with SOS, read-out: Rho-A + SOS: % inh.
[12] = without SOS, read-out: Rho-A: % inh.

| Compound | HRAS wild type + SOS: % inh. (HRas wild type) | HRas wild type % inh. (HRas wild type) | inhibition at 20 µM (KRas G12D mutant; [7]) [%] | inhibition at 20 µM (KRas G12D mutant; [8]) [%] | inhibition at 20 µM (Rac-1; [9]) [%] | inhibition at 20 µM (Rac-1; [10]) [%] | inhibition at 20 µM (Rho-A; [11]) [%] | inhibition at 20 µM (Rho-A; [12]) [%] | other results |
| --- | --- | --- | --- | --- | --- | --- | --- | --- | --- |
| Cn1ccc(-c2sc3nc(-c4nccn4C)nc(N[C@@H]4CC[C@H](O)C4)c3c2C2=CC=CCC=C2)n1 (racemic) | A (1-25% inhibition) | C (51-75% inhibition) | 0 | 0 | 1 to 25 | 1 to 25 | 1 to 25 | 26 to 50 | – |
| COCC(C)Nc1nc(-c2nccn2C)nc2sc(-c3ccccc3Cl)c(-c3cscn3)c12 (centres unmarked) [drawing 414] | – | – | – | – | – | – | – | – | inhibition at 10 µM (MAPK phosphorylation [1]): 76 to 100%; inhibition at 10 µM (MAPK phosphorylation [2]): 26 to 50%; inhibition at 10 µM (MAPK phosphorylation [3]): 76 to 100%; inhibition at 10 µM (AKT phosphorylation): 0% |
| COCC(C)Nc1nc(-c2nccn2C)nc2sc(-c3cccc(OC)c3)c(-c3cscn3)c12 (centres unmarked) [drawing 416] | – | – | – | – | – | – | – | – | inhibition at 10 µM (MAPK phosphorylation [1]): 76 to 100%; inhibition at 10 µM (MAPK phosphorylation [2]): 76 to 100%; inhibition at 10 µM (MAPK phosphorylation [3]): 26 to 50%; inhibition at 10 µM (AKT phosphorylation): 0% |
| COCCNc1nc(-c2nccn2C)nc2sc(-c3cc(OC)ccc3Cl)c(-c3ccc(OC)cc3)c12 [drawing 421] | – | – | – | – | – | – | – | – | inhibition at 10 µM (MAPK phosphorylation [1]): 51 to 75%; inhibition at 10 µM (MAPK phosphorylation [2]): 0%; inhibition at 10 µM (MAPK phosphorylation [3]): 0%; inhibition at 10 µM (AKT phosphorylation): 0% |
| COCCNc1nc(-c2nccn2C)nc2sc(-c3cc(OC)ccc3Cl)c(-c3ccccc3)c12 [drawing 426] | – | – | – | – | – | – | – | – | inhibition at 10 µM (MAPK phosphorylation [1]): 51 to 75%; inhibition at 10 µM (MAPK phosphorylation [2]): 26 to 50%; inhibition at 10 µM (MAPK phosphorylation [3]): 76 to 100% |
| COCCNc1nc(-c2nccn2C)nc2sc(-c3ccccc3Cl)c(-c3ccc(OC)cc3)c12 [drawing 560] | – | – | – | – | – | – | – | – | IC50 [4]: > 1000 nM; inhibition at 10 µM [4]: 76 to 100%; IC50 [5]: 750 to 1000 nM |
| COCCNc1nc(-c2nccn2C)nc2sc(-c3cccc(OC)c3)c(-c3ccc(OC)cc3)c12 [drawing 561] | – | – | – | – | – | – | – | – | IC50 [4]: > 1000 nM; inhibition at 10 µM [4]: 76 to 100%; IC50 [5]: > 1000 nM |
| COCCNc1nc(-c2cn(C)cn2)nc2sc(-c3ccccc3Cl)c(-c3ccc(OC)cc3)c12 [drawing 564] | – | – | – | – | – | – | – | – | IC50 [4]: > 1000 nM; inhibition at 10 µM [4]: 76 to 100%; IC50 [5]: > 1000 nM |
| COCCNc1nc(-c2nccn2C)nc2sc(-c3cccc(OC)c3Cl)c(-c3ccccc3)c12 [drawing 567] | – | – | – | – | – | – | – | – | IC50 [4]: 750 to 1000 nM; inhibition at 10 µM [4]: 76 to 100%; IC50 [5]: 750 to 1000 nM; IC50 [6]: 750 to 1000 nM |
| COc1cccc(-c2sc3nc(-c4nccn4C)nc(NC4CCC(OC)C4)c3c2-c2ccccc2)c1F (centres unmarked) [drawing 1018] | D (76-100% inhibition) | D (76-100% inhibition) | 51 to 75 | 26 to 50 | – | 51 to 75 | – | – | Rac-1 + SOS: % inh. (Rac-1; at 20 μM, with SOS): C (51-75% inhibition); Rho-A + SOS: % inh. (Rho-A; with SOS): C (51-75% inhibition); Rho-A: % inh. (Rho-A; without SOS): C (51-75% inhibition) |
| COc1cccc(-c2sc3nc(-c4nccn4C)nc(NC4CCC(OC)C4)c3c2-c2ccccc2)c1F (centres unmarked) [drawing 1020] | D (76-100% inhibition) | B (26-50% inhibition) | – | – | – | – | – | – | KRas G12D mutant + SOS: % inh. (KRas G12D mutant; with SOS): C (51-75% inhibition); KRas G12D mutant: % inh. (KRas G12D mutant; without SOS): B (26-50% inhibition); Rac-1 + SOS: % inh. (Rac-1; at 20 μM, with SOS): B (26-50% inhibition); Rac-1: % inh. (Rac-1; at 20 μM, without SOS): C (51-75% inhibition); Rho-A + SOS: % inh. (Rho-A; with SOS): A (1-25% inhibition); Rho-A: % inh. (Rho-A; without SOS): A (1-25% inhibition) |
| COC1CCC(Nc2nc(-c3nccn3C)nc3sc(-c4cccc5[nH]ncc45)c(-c4ccccc4)c23)C1 (centres unmarked) [drawing 1023] | D (76-100% inhibition) | B (26-50% inhibition) | 26 to 50 | 26 to 50 | 51 to 75 | 51 to 75 | 1 to 25 | 26 to 50 | – |
| CO[C@H]1C[C@@H](Nc2nc(-c3ccccn3)nc3sccc23)C1 [drawing 1037] | D (76-100% inhibition) | C (51-75% inhibition) | 51 to 75 | 51 to 75 | 76 to 100 | 76 to 100 | 51 to 75 | 76 to 100 | – |
| CO[C@H]1C[C@@H](Nc2nc(-c3nccn3C)nc3sccc23)C1 [drawing 1038] | D (76-100% inhibition) | C (51-75% inhibition) | 76 to 100 | 76 to 100 | 76 to 100 | 76 to 100 | 26 to 50 | 76 to 100 | – |
| CO[C@H]1C[C@@H](Nc2nc(-c3nccn3C)nc3sc(-c4ccn(C)n4)c(-c4ccccc4)c23)C1.Cl [drawing 1040] | D (76-100% inhibition) | B (26-50% inhibition) | 51 to 75 | 26 to 50 | 76 to 100 | 51 to 75 | 51 to 75 | 51 to 75 | – |
| CO[C@H]1C[C@H](Nc2nc(-c3nccn3C)nc3sc(-c4ccn(C)n4)c(-c4ccccc4)c23)C1 [drawing 1041] | D (76-100% inhibition) | B (26-50% inhibition) | 51 to 75 | 26 to 50 | 51 to 75 | 51 to 75 | 51 to 75 | 51 to 75 | – |
| CN(C)CCOCCNc1nc(-c2nccn2C)nc2sc(-c3ccn(C)n3)c(-c3ccccc3)c12 [drawing 1042] | D (76-100% inhibition) | B (26-50% inhibition) | 51 to 75 | 26 to 50 | 51 to 75 | 51 to 75 | 51 to 75 | 51 to 75 | – |
| Cn1ccc(-c2sc3nc(-c4nccn4C)nc(N[C@H]4C[C@@H](O)C4)c3c2-c2ccccc2)n1 [drawing 1043] | A (1-25% inhibition) | C (51-75% inhibition) | 0 | 0 | 1 to 25 | 1 to 25 | 26 to 50 | 26 to 50 | – |
| CO[C@H]1CC[C@@H](Nc2nc(-c3nccn3C)nc3sc(-c4ccn(C(C)C)n4)c(C)c23)C1 [drawing 1054] | D (76-100% inhibition) | C (51-75% inhibition) | 51 to 75 | 51 to 75 | 51 to 75 | 51 to 75 | 76 to 100 | 76 to 100 | – |
